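Exposure lasted 48 hours, with cells grown in 96-well plates and compounds tested at five concentrations. GI50 = concentration required for 50% inhibition of growth. At the TGI there is no net growth.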
Tests used:
Assay in all cases: inhibition of tumour cell growth, NCI panel, 48 h; in the data active = GI50 below about 0.43 µM; inactive = the rest
A498 renal = test system: A498 renal
SF-268 CNS = test system: SF-268 CNS
SF-539 CNS = test system: SF-539 CNS
SK-MEL-28 melanoma = test system: SK-MEL-28 melanoma
HCT-116 colon = test system: HCT-116 colon
RPMI-8226 leukemia = test system: RPMI-8226 leukemia
IGROV1 ovarian = test system: IGROV1 ovarian
SR leukemia = test system: SR leukemia
LOX IMVI melanoma = test system: LOX IMVI melanoma
OVCAR-5 ovarian = test system: OVCAR-5 ovarian
HOP-92 NSCLC = test system: HOP-92 NSCLC
SNB-75 CNS = test system: SNB-75 CNS
SF-295 CNS = test system: SF-295 CNS
M14 melanoma = test system: M14 melanoma
HL-60(TB) leukemia = test system: HL-60(TB) leukemia
UACC-62 melanoma = test system: UACC-62 melanoma
PC-3 prostate = test system: PC-3 prostate
MDA-MB-435 = test system: MDA-MB-435
786-0 renal = test system: 786-0 renal
MALME-3M melanoma = test system: MALME-3M melanoma
U251 CNS = test system: U251 CNS
BT-549 breast = test system: BT-549 breast
HCC-2998 colon = test system: HCC-2998 colon
SN12C renal = test system: SN12C renal
EKVX NSCLC = test system: EKVX NSCLC
NCI-H460 lung = test system: NCI-H460 lung
COLO 205 colon = test system: COLO 205 colon
CCRF-CEM leukemia = test system: CCRF-CEM leukemia
MDA-MB-231 breast = test system: MDA-MB-231 breast
CAKI-1 renal = test system: CAKI-1 renal
NCI-H522 lung = test system: NCI-H522 lung
NCI/ADR-RES ovarian = test system: NCI/ADR-RES ovarian
OVCAR-8 ovarian = test system: OVCAR-8 ovarian
MOLT-4 leukemia = test system: MOLT-4 leukemia
HS 578T breast = test system: HS 578T breast
TK-10 renal = test system: TK-10 renal
SK-OV-3 ovarian = test system: SK-OV-3 ovarian
UO-31 renal = test system: UO-31 renal
SK-MEL-2 melanoma = test system: SK-MEL-2 melanoma
SW-620 colon = test system: SW-620 colon
KM12 colon = test system: KM12 colon
UACC-257 melanoma = test system: UACC-257 melanoma
ACHN renal = test system: ACHN renal
RXF 393 renal = test system: RXF 393 renal
MCF7 breast = test system: MCF7 breast
DU-145 prostate = test system: DU-145 prostate
SNB-19 CNS = test system: SNB-19 CNS
NCI-H226 lung = test system: NCI-H226 lung
OVCAR-4 ovarian = test system: OVCAR-4 ovarian
HCT-15 colon = test system: HCT-15 colon
SK-MEL-5 melanoma = test system: SK-MEL-5 melanoma
HT29 colon = test system: HT29 colon
K-562 leukemia = test system: K-562 leukemia
T-47D breast = test system: T-47D breast
OVCAR-3 ovarian = test system: OVCAR-3 ovarian
HOP-62 NSCLC = test system: HOP-62 NSCLC
A549 NSCLC = test system: A549 NSCLC
NCI-H23 lung = test system: NCI-H23 lung

CN(C)CCN1CCC(Cc2ccccc2)CC1
> 80 µM: TGI (A498 renal) | TGI (SF-268 CNS) | TGI (SF-539 CNS) | TGI (SK-MEL-28 melanoma) | TGI (HCT-116 colon) | TGI (RPMI-8226 leukemia) | TGI (IGROV1 ovarian) | TGI (SR leukemia) | TGI (LOX IMVI melanoma) | TGI (OVCAR-5 ovarian) | TGI (HOP-92 NSCLC) | TGI (SNB-75 CNS) | TGI (SF-295 CNS) | TGI (M14 melanoma) | TGI (HL-60(TB) leukemia) | TGI (UACC-62 melanoma) | TGI (PC-3 prostate) | TGI (MDA-MB-435) | TGI (786-0 renal) | TGI (MALME-3M melanoma) | TGI (U251 CNS) | TGI (BT-549 breast) | TGI (HCC-2998 colon) | TGI (SN12C renal) | TGI (EKVX NSCLC) | TGI (NCI-H460 lung) | TGI (COLO 205 colon) | TGI (CCRF-CEM leukemia) | TGI (MDA-MB-231 breast) | TGI (CAKI-1 renal) | TGI (NCI-H522 lung) | TGI (NCI/ADR-RES ovarian) | TGI (OVCAR-8 ovarian) | TGI (MOLT-4 leukemia) | TGI (HS 578T breast) | TGI (TK-10 renal) | TGI (SK-OV-3 ovarian) | TGI (UO-31 renal) | TGI (SK-MEL-2 melanoma) | TGI (SW-620 colon) | TGI (KM12 colon) | TGI (UACC-257 melanoma) | TGI (ACHN renal) | TGI (RXF 393 renal) | TGI (MCF7 breast) | TGI (DU-145 prostate) | TGI (SNB-19 CNS) | TGI (NCI-H226 lung) | TGI (OVCAR-4 ovarian) | TGI (HCT-15 colon) | TGI (SK-MEL-5 melanoma) | TGI (HT29 colon) | TGI (K-562 leukemia) | TGI (T-47D breast) | TGI (OVCAR-3 ovarian) | TGI (HOP-62 NSCLC) | TGI (A549 NSCLC) | TGI (NCI-H23 lung)
inactive: GI50 (A498 renal) 47.2 µM | GI50 (SF-268 CNS) > 80 µM | GI50 (SF-539 CNS) > 80 µM | GI50 (SK-MEL-28 melanoma) > 80 µM | GI50 (HCT-116 colon) > 80 µM | GI50 (RPMI-8226 leukemia) > 80 µM | GI50 (IGROV1 ovarian) > 80 µM | GI50 (SR leukemia) 67.3 µM | GI50 (LOX IMVI melanoma) > 80 µM | GI50 (OVCAR-5 ovarian) > 80 µM | GI50 (HOP-92 NSCLC) 41.4 µM | GI50 (SNB-75 CNS) > 80 µM | GI50 (SF-295 CNS) > 80 µM | GI50 (M14 melanoma) > 80 µM | GI50 (HL-60(TB) leukemia) 26.8 µM | GI50 (UACC-62 melanoma) > 80 µM | GI50 (PC-3 prostate) > 80 µM | GI50 (MDA-MB-435) > 80 µM | GI50 (786-0 renal) > 80 µM | GI50 (MALME-3M melanoma) > 80 µM | GI50 (U251 CNS) > 80 µM | GI50 (BT-549 breast) > 80 µM | GI50 (HCC-2998 colon) > 80 µM | GI50 (SN12C renal) > 80 µM | GI50 (EKVX NSCLC) > 80 µM | GI50 (NCI-H460 lung) > 80 µM | GI50 (COLO 205 colon) > 80 µM | GI50 (CCRF-CEM leukemia) > 80 µM | GI50 (MDA-MB-231 breast) > 80 µM | GI50 (CAKI-1 renal) > 80 µM | GI50 (NCI-H522 lung) > 80 µM | GI50 (NCI/ADR-RES ovarian) > 80 µM | GI50 (OVCAR-8 ovarian) > 80 µM | GI50 (MOLT-4 leukemia) > 80 µM | GI50 (HS 578T breast) 44.1 µM | GI50 (TK-10 renal) > 80 µM | GI50 (SK-OV-3 ovarian) > 80 µM | GI50 (UO-31 renal) > 80 µM | GI50 (SK-MEL-2 melanoma) > 80 µM | GI50 (SW-620 colon) > 80 µM | GI50 (KM12 colon) > 80 µM | GI50 (UACC-257 melanoma) > 80 µM | GI50 (ACHN renal) > 80 µM | GI50 (RXF 393 renal) > 80 µM | GI50 (MCF7 breast) > 80 µM | GI50 (DU-145 prostate) > 80 µM | GI50 (SNB-19 CNS) > 80 µM | GI50 (NCI-H226 lung) > 80 µM | GI50 (OVCAR-4 ovarian) > 80 µM | GI50 (HCT-15 colon) > 80 µM | GI50 (SK-MEL-5 melanoma) 43.2 µM | GI50 (HT29 colon) > 80 µM | GI50 (K-562 leukemia) 15.4 µM | GI50 (T-47D breast) > 80 µM | GI50 (OVCAR-3 ovarian) > 80 µM | GI50 (HOP-62 NSCLC) > 80 µM | GI50 (A549 NSCLC) > 80 µM | GI50 (NCI-H23 lung) > 80 µM

— PubChem BioAssay (NCI)
